Legend:
[1] = biological target: T1, Organic anion transporter 3 (Homo sapiens, UniProt Q8TCC7); experiment: TP_TRANSPORTER: inhibition of E1S uptake in OAT3 expressing oocytes
T1 sequence (Q8TCC7 whole entry): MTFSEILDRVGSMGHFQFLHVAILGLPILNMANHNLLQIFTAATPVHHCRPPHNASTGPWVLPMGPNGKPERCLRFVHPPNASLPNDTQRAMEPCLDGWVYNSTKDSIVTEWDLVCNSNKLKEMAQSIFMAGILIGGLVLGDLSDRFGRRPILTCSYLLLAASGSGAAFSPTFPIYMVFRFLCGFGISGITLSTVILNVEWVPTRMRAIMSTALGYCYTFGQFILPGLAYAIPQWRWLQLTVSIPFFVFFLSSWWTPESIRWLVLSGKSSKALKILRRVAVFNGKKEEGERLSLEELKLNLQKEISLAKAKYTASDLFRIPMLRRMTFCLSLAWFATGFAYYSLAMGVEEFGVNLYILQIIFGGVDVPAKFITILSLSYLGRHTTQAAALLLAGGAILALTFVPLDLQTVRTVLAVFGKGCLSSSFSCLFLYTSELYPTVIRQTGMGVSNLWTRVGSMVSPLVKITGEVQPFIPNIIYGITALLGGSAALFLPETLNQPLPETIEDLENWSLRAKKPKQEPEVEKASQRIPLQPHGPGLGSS

[2] = biological target: T2, Solute carrier family 22 member 2 (Homo sapiens, UniProt O15244); experiment: TP_TRANSPORTER: inhibition of TEA uptake in OCT2 expressing oocytes
T2 sequence (O15244 whole entry): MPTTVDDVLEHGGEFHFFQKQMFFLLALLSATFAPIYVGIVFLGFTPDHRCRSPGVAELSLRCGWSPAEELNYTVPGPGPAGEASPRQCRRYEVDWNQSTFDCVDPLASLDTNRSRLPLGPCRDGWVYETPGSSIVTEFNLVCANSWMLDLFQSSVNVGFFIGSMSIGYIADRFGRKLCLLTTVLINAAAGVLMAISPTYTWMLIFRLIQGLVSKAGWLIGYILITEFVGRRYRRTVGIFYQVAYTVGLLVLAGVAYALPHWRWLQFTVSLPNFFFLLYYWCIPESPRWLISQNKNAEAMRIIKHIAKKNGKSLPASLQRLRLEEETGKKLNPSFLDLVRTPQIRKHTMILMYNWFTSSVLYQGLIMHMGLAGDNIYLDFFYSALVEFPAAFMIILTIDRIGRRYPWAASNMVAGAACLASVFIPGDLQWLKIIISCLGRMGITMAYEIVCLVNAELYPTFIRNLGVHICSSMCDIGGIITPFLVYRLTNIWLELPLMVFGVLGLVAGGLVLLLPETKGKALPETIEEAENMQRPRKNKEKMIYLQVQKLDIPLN

SMILES	Ki [1] [µM]	Ki [2] [µM]
CN/C(=N/CCSCc1nc[nH]c1C)NC#N [CIMETIDINE]	53	57
NC(N)=Nc1nc(CSCCC(N)=NS(N)(=O)=O)cs1 [FAMOTIDINE]	300	1800
